Assay results reported in ChEMBL document CHEMBL1138438, “Structural-activity relationship study of highly-functionalized imidazolines as potent inhibitors of nuclear transcription factor-kappaB mediated IL-6 production” (Bioorg Med Chem, 2009).
Active and inactive are the calls of the source. No cut-off for these calls is given here.

Legend:
[1] = tested on: HeLa; assay: Cell cycle arrest in TNF-alpha-stimulated human HeLa cells transfected with NFkappaB-Luc assessed as accumulation at total S phase at 10 uM after 8 hrs by using propidium iodide staining by FACS analysis; format: functional
[2] = tested on: HeLa; assay: Cell cycle arrest in TNF-alpha-stimulated human HeLa cells transfected with NFkappaB-Luc assessed as accumulation at diploid S phase at 0.1 uM after 8 hrs by using propidium iodide staining by FACS analysis; format: functional
[3] = tested on: HeLa; assay: Cell cycle arrest in TNF-alpha-stimulated human HeLa cells transfected with NFkappaB-Luc assessed as accumulation at diploid G1 phase at 10 uM after 8 hrs by using propidium iodide staining by FACS analysis; format: functional
[4] = tested on: HeLa; assay: Cell cycle arrest in human HeLa cells transfected with NFkappaB-Luc assessed as accumulation at diploid S phase at 20 uM after 8 hrs by using propidium iodide staining by FACS analysis; format: functional
[5] = Cytotoxicity against IL-1-beta-stimulated human whole blood lymphocytes assessed as survival cell count in millions at 20 uM after 24 hrs by trypan blue staining-based hemocytometry
[6] = tested on: HeLa; assay: Stimulation of NF-kappaB-mediated gene transcription expressed in human HeLa cells for 30 mins before TNFalpha challenge measured after 8 hrs by steady-glo luciferase reporter gene assay; format: cell-based
[7] = tested on: HeLa; assay: Cell cycle arrest in TNF-alpha-stimulated human HeLa cells transfected with NFkappaB-Luc assessed as accumulation at G2/G1 phase at 1 uM after 8 hrs by using propidium iodide staining by FACS analysis; format: functional
[8] = tested on: HeLa; assay: Effect on cell cycle arrest in TNF-alpha-stimulated human HeLa cells transfected with NFkappaB-Luc assessed as cell debris level at 10 uM after 8 hrs by using propidium iodide staining by FACS analysis; format: functional
[9] = tested on: HeLa; assay: Effect on cell cycle arrest in TNF-alpha-stimulated human HeLa cells transfected with NFkappaB-Luc assessed as total background cell aggregate and debris level at 0.05 uM after 8 hrs by using propidium iodide staining by FACS analysis; format: functional
[10] = tested on: HeLa; assay: Cell cycle arrest in human HeLa cells transfected with NFkappaB-Luc assessed as accumulation at diploid stage at 20 uM after 8 hrs by using propidium iodide staining by FACS analysis; format: functional
[11] = tested on: HeLa; assay: Effect on cell cycle arrest in human HeLa cells transfected with NFkappaB-Luc assessed as cell aggregate level at 20 uM after 8 hrs by using propidium iodide staining by FACS analysis; format: functional
[12] = tested on: HeLa; assay: Effect on cell cycle arrest in TNF-alpha-stimulated human HeLa cells transfected with NFkappaB-Luc assessed as cell debris level at 20 uM after 8 hrs by using propidium iodide staining by FACS analysis; format: functional
[13] = tested on: HeLa; assay: Cell cycle arrest in TNF-alpha-stimulated human HeLa cells transfected with NFkappaB-Luc assessed as accumulation at diploid G1 phase at 20 uM after 8 hrs by using propidium iodide staining by FACS analysis; format: functional
[14] = Inhibition of NF-kappaB-mediated gene transcription expressed in TNF-alpha-stimulated human HeLa cells co-transfected with renilla luciferase-TK gene preincubated for 30 mins before TNFalpha challenge measured after 8 hrs by dual-glo luciferase reporter gene assay; format: cell-based
[15] = tested on: HeLa; assay: Cell cycle arrest in TNF-alpha-stimulated human HeLa cells transfected with NFkappaB-Luc assessed as accumulation at total S phase at 0.1 uM after 8 hrs by using propidium iodide staining by FACS analysis; format: functional
[16] = tested on: HeLa; assay: Cell cycle arrest in TNF-alpha-stimulated human HeLa cells transfected with NFkappaB-Luc assessed as accumulation at diploid G2 phase at 5 uM after 8 hrs by using propidium iodide staining by FACS analysis; format: functional
[17] = tested on: HeLa; assay: Cell cycle arrest in TNF-alpha-stimulated human HeLa cells transfected with NFkappaB-Luc assessed as accumulation at total S phase at 20 uM after 8 hrs by using propidium iodide staining by FACS analysis; format: functional
[18] = tested on: HeLa; assay: Cell cycle arrest in TNF-alpha-stimulated human HeLa cells transfected with NFkappaB-Luc assessed as accumulation at diploid stage at 10 uM after 8 hrs by using propidium iodide staining by FACS analysis; format: functional
[19] = tested on: HeLa; assay: Effect on cell cycle arrest in TNF-alpha-stimulated human HeLa cells transfected with NFkappaB-Luc assessed as cell debris level at 0.1 uM after 8 hrs by using propidium iodide staining by FACS analysis; format: functional
[20] = Cytotoxicity against human whole blood lymphocytes assessed as survival cell count in millions at 3 uM after 24 hrs by trypan blue staining-based hemocytometry
[21] = tested on: HeLa; assay: Cell cycle arrest in human HeLa cells transfected with NFkappaB-Luc assessed as accumulation at diploid G1 phase at 20 uM after 8 hrs by using propidium iodide staining by FACS analysis; format: functional

CCOC(=O)[C@]1(c2ccccc2)N=C(c2ccccc2)N(Cc2ccccc2)[C@@H]1c1ccccc1 (racemic)
Activity [1]: 16.8%
Activity [2]: 21.47%
Activity [3]: 68.19%
Activity [4]: 21.48%
Activity [5]: 0.98 mL⁻¹
Activity [6]: inactive
Activity [7]: 1.91%
Activity [8]: 15.28%
Activity [9]: 1.06%
Activity [10]: 100%
Activity [11]: 0%
Activity [12]: 14.57%
Activity [13]: 65.96%
EC50 [14]: 4.67 µM
Activity [15]: 21.47%
Activity [16]: 13.84%
Activity [17]: 19.29%
Activity [18]: 100%
Activity [19]: 2%
Activity [20]: 0.86 mL⁻¹
Activity [21]: 65.19%
